Test results from ChEMBL document CHEMBL1201862, “PubChem BioAssay data set” (2004).
Active and inactive are the calls of the source.

Assays:
[1] = biological target: T1, Eukaryotic translation initiation factor 2-alpha kinase 3 (Homo sapiens, UniProt Q9NZJ5); assay: Counterscreen assay for PERK inhibitors: Dose response cell-based high throughput screening assay to measure inhibition of PERK at 6 hours. [Related pubchem assays: 1522, 1416 ]; format: functional
T1 sequence (Q9NZJ5 whole entry): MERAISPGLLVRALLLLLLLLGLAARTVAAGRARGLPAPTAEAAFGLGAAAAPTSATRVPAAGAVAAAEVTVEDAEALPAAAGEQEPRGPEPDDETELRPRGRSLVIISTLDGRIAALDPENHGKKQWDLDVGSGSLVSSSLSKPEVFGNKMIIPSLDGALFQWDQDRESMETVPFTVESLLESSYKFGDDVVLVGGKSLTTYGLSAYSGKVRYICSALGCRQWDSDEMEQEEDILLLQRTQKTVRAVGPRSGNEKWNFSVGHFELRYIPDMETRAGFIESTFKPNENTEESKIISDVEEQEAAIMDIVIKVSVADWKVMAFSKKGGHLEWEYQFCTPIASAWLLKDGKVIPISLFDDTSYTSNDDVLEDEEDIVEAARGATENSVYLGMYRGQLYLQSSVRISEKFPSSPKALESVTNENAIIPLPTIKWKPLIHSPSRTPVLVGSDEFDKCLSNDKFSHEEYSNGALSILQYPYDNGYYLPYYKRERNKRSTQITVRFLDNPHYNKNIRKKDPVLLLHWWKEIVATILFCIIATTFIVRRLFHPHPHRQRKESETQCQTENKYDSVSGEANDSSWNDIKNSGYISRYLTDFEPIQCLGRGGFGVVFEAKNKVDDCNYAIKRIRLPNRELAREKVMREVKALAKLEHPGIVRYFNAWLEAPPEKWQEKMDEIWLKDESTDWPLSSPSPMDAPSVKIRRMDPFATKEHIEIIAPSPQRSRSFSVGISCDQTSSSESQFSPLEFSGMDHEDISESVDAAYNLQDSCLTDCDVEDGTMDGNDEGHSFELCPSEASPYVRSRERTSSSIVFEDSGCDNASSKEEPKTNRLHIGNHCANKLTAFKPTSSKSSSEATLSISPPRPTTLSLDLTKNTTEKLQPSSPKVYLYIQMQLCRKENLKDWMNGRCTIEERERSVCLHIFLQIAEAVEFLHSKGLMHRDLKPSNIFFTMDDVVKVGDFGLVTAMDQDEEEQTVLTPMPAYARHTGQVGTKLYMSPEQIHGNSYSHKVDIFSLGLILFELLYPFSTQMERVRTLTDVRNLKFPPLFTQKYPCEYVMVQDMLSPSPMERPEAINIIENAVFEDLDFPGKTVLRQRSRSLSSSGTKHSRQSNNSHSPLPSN

[2] = biological target: T1, Eukaryotic translation initiation factor 2-alpha kinase 3; assay: Dose response cell-based high-throughput screening assay to measure PERK inhibition. [Related pubchem assays: 1416 ]; format: functional
CAAX prenyl protease 2 = CAAX prenyl protease 2 (Saccharomyces cerevisiae S288c, UniProt Q03530); format: biochemical
Trypsin = Trypsin (Sus scrofa, UniProt P00761); assay: porcine trypsin inhibitors, dose response, selectivity assay for Rce1 protease inhibitor project, biochemical, quenched peptide fluorescence, cherry-pick (AID 488789)
[3] = biological target: Eukaryotic translation initiation factor 4E (Mus musculus, UniProt P63073); assay: eIF4E–eIF4G protein interaction inhibitors, dose response, biochemical, TR-FRET (AID 855); format: functional;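 note: potency for disrupting eIF4E binding to eIF4GI seen as loss of FRET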
[4] = Shn3 3'UTR reporter inhibitors, dose response, cell-based, Clone20 osteoblasts, firefly luciferase, cherry-picked (AID 624132); format: functional;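 note: firefly luciferase luminescence from reporter carrying the Shn3 3'UTR in osteoblasts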
[5] = biological target: Neurotensin receptor type 1 (Homo sapiens, UniProt P30989); format: functional;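 note: Image-based confirmatory dose-response assay measuring agonist activity at NTR1; NTR1-expressing U2OS osteosarcoma cells imaged for beta-arrestin GFP spot formation; agonist potency where compounds increase beta-arrestin recruitment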
[6] = microbe, parasite or virus in culture; format: functional; conditions: Mycobacterium tuberculosis
[7] = tested on: Streptococcus sp. 'group A'; assay: growth inhibition of control SK(-) GAS strain, dose response, counter-screen for streptokinase expression inhibitor project, luminescence, kanamycin, BacTiterGlo, confirmation (AID 1900); format: functional, organism-based
Streptococcus = assay: Group A Streptococcus viability loss, dose response, counter-screen for streptokinase expression inhibitor project, luminescence, BacTiterGlo (AID 1915); format: functional, organism-based;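 note: potency for reduction of bacterial viability or growth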
INS1 = assay: beta cell apoptosis inhibitors, cytokine rescue, dose response, luminescence, retest (AID 449756); format: functional, cell-based; conditions: Rattus norvegicus;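 note: cell death triggered by IL-1 beta plus TNF-alpha plus IFN-gamma mixture; protective hits raise ATP signal compared with cytokine alone wells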
[8] = control 3'UTR Renilla luciferase suppression, dose response, counter-screen for Shn3 inhibitor project, cell-based, Clone20-Shn3RL, cherry-picked (AID 624133); format: functional
[9] = THP-1 cell cytotoxicity, dose response, cytotoxicity control for Vif-APOBEC3G degradation inhibitor project, THP-1 cells (AID 1117359); format: functional; conditions: Human immunodeficiency virus 1, THP-1
Streptokinase A = biological target: T2, Streptokinase A (Streptococcus pyogenes serotype M1, UniProt P10520); assay: S. pyogenes streptokinase expression inhibitors, potency, dose response, plasminogen activation absorbance, OD405 (AID 1914); format: functional, Streptococcus pyogenes M1 GAS;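 note: secreted streptokinase activity via plasminogen activation per viability signal from cell pellet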
T2 sequence (P10520 whole entry): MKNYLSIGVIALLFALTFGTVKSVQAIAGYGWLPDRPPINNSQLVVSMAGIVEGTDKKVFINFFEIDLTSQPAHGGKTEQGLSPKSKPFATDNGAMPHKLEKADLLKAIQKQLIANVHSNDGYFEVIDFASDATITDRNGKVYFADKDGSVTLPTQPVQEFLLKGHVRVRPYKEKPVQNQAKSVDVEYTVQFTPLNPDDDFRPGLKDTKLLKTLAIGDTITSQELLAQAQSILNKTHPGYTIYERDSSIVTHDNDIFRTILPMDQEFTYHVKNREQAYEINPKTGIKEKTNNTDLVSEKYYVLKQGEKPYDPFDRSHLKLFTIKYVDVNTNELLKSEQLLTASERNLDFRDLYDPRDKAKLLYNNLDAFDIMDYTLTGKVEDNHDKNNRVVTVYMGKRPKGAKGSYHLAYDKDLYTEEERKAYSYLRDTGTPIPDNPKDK

[10] = HepG2 cell cytotoxicity, dose response, cytotoxicity control for Shn3 inhibitor project, CellTiter-Glo, cherry-picked (AID 624134); format: functional, cell-based
[11] = biological target: NACHT, LRR and PYD domains-containing protein 3 (Homo sapiens, UniProt Q96P20); assay: NALP3 inhibitors in yeast, dose response, luminescent (AID 488799); format: functional
[12] = inhibitors of intracellular T. cruzi replication, confirmation, NIH3T3 host cells, beta-gal luminescence (AID 2044); format: functional, cell-based;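 note: intracellular parasites grown in NIH/3T3 mouse fibroblasts as host cells; luminescent beta-galactosidase reporter signal from transgenic T. cruzi replicating inside host cells; inhibitors lower the luminescence signal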
[13] = C. albicans growth with fluconazole, confirmation, fluorescence, retest (AID 2467); format: functional, cell-based
[14] = NIH-3T3 fibroblast cytotoxicity, dose response, cytotoxicity control, cell-based, fluorescence, Alamar Blue, secondary assay (AID 2327); format: functional;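 note: NIH-3T3 mouse fibroblasts cultured with fluconazole at 8 µg/mL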
[15] = biological target: T3, Ubiquitin-conjugating enzyme E2 N (Homo sapiens, UniProt P61088); format: functional;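 note: Dose-response confirmation in a TR-FRET assay detecting UBC13-driven polyubiquitin chain formation, inhibition measured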
T3 sequence (P61088 whole entry): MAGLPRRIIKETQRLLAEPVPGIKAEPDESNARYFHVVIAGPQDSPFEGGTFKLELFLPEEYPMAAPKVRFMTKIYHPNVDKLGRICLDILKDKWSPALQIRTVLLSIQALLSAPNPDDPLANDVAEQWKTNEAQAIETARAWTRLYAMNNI

[16] = Luminescence Cell-Based Dose Retest to Confirm Inhibitors of Cancer Stem Cells. [Related pubchem assays (depositor defined):AID2717, AID2721]; format: functional; conditions: Homo sapiens
[17] = cytotoxicity toward NIH3T3 fibroblasts, dose response, counter-screen, cell-based, ATP luminescence, mouse fibroblasts (AID 2010); format: functional;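 note: cells exposed to compound for about 90 hours before reading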
[18] = Vero E6 cell cytotoxicity, dose response, cytotoxicity control for non-replicating M. tuberculosis project, secondary assay (AID 492998); format: functional, VeroE6; conditions: Vero C1008
Vero [19] = assay: cells; format: functional; conditions: Chlorocebus sabaeus
[20] = THP-1 cell cytotoxicity, dose response, cytotoxicity control for non-replicating M. tuberculosis project (AID 489025); format: functional
cells = format: functional
[21] = biological target: T4, Short transient receptor potential channel 4 (Mus musculus, UniProt Q9QUQ5); assay: mouse TRPC4 channel activators, dose response, cell-based, HEK293 TRPC4/mu-opioid, Fluo-4 calcium (AID 434937); format: functional
T4 sequence (Q9QUQ5 whole entry): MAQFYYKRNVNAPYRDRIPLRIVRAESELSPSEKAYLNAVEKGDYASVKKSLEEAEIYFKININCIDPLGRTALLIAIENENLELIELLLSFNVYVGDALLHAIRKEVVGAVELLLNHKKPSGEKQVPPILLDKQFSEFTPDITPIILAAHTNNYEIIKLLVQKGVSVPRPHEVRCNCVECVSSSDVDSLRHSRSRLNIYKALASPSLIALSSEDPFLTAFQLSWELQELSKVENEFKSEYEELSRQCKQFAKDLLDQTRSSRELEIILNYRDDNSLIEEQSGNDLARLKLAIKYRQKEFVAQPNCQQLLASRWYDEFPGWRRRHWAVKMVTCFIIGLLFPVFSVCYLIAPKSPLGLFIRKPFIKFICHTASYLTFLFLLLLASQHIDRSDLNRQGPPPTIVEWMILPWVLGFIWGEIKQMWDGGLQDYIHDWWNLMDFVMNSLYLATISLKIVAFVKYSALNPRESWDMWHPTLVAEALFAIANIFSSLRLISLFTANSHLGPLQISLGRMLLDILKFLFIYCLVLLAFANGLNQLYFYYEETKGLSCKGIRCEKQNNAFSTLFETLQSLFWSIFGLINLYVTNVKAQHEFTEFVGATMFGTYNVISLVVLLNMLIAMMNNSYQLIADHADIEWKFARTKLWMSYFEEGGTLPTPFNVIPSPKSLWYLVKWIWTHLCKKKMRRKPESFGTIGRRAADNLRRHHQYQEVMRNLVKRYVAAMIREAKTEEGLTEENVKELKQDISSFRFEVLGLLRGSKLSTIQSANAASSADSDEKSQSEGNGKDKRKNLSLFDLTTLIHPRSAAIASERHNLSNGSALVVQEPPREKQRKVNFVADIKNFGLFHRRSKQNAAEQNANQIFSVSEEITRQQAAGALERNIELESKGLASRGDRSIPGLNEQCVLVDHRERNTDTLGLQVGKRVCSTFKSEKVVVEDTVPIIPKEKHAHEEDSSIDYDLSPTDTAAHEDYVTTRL

Vero [22] = assay: cells; format: functional, cell-based; conditions: Chlorocebus sabaeus
[23] = biological target: Alkaline phosphatase, placental type (Homo sapiens, UniProt P05187); assay: PLAP enzyme inhibitors, confirmation, biochemical, luminescence (AID 1512); format: functional
[24] = biological target: T5, Alkaline phosphatase, tissue-nonspecific isozyme (Homo sapiens, UniProt P05186); assay: human TNAP enzyme inhibitors, SAR follow-up, biochemical, luminescent, dose response (AID 1056)
T5 sequence (P05186 whole entry): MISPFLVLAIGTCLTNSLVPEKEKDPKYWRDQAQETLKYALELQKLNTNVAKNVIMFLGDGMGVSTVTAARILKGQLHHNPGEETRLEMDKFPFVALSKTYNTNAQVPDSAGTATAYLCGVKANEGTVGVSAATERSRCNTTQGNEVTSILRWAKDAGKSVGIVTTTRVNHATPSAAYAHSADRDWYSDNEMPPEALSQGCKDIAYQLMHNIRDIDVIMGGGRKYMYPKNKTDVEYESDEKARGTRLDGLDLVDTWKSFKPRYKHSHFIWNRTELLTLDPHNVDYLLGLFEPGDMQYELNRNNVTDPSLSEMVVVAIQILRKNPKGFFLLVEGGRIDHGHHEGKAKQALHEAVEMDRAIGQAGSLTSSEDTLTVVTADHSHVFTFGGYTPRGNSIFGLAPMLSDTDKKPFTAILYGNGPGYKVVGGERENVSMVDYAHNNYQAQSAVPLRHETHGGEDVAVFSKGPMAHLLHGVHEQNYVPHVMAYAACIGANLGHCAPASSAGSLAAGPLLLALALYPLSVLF

Chain of NACHT, LRR and PYD domains-containing protein 3 (Q96P20 whole entry, the tested form may be a part): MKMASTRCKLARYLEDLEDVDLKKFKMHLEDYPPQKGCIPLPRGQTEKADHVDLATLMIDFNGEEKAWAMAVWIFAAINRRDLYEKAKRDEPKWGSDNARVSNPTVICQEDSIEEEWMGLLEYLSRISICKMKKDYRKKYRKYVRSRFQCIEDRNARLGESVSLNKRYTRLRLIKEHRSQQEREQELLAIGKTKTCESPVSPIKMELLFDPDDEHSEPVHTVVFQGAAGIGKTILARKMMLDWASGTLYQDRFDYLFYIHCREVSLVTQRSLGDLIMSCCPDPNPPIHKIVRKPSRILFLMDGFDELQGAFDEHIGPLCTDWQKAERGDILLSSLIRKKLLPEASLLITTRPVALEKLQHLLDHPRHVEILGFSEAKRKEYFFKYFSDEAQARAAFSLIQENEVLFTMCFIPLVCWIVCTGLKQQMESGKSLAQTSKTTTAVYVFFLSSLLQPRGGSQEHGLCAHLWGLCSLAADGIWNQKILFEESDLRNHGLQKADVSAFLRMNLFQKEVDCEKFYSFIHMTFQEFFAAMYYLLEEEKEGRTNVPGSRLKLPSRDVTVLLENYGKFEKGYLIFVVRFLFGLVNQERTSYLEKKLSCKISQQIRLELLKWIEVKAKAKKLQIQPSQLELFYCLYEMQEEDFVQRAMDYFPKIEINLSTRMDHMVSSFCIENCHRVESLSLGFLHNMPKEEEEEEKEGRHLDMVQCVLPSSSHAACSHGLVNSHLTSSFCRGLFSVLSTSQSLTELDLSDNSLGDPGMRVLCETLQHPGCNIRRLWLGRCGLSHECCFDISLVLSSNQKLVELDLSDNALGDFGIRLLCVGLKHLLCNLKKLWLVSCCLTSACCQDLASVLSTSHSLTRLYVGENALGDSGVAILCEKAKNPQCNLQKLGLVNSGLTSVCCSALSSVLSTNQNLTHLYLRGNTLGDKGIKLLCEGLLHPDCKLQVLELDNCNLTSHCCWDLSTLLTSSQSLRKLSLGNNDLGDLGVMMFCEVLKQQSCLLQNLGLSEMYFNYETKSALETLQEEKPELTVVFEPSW
Chain of CAAX prenyl protease 2 (Q03530 whole entry): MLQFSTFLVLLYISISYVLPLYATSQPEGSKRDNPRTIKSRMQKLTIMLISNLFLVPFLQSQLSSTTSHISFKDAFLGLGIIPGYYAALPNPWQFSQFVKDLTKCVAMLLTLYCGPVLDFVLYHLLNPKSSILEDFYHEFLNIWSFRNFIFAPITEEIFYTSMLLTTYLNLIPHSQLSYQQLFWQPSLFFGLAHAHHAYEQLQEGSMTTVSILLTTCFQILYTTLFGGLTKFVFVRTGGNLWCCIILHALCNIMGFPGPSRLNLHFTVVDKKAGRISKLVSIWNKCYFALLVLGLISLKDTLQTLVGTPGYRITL
Chain of Neurotensin receptor type 1 (P30989 whole entry): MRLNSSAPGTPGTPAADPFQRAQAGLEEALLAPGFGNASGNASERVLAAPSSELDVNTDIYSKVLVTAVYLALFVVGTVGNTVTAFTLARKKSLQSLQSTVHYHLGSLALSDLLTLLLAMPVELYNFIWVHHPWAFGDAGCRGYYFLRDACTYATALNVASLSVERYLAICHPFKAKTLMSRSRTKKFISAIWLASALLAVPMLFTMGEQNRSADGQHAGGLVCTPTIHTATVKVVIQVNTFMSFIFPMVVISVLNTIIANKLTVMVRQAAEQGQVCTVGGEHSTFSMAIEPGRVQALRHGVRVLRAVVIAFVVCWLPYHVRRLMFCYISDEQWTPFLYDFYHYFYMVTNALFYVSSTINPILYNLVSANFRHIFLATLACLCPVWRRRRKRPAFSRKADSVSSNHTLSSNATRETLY
Chain of Eukaryotic translation initiation factor 4E (P63073 whole entry): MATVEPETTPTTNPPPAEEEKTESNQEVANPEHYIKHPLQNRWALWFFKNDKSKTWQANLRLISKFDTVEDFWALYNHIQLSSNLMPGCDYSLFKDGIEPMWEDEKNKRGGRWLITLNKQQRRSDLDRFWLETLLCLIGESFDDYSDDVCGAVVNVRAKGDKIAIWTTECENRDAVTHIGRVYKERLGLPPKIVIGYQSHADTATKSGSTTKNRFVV
Chain of Alkaline phosphatase, placental type (P05187 whole entry): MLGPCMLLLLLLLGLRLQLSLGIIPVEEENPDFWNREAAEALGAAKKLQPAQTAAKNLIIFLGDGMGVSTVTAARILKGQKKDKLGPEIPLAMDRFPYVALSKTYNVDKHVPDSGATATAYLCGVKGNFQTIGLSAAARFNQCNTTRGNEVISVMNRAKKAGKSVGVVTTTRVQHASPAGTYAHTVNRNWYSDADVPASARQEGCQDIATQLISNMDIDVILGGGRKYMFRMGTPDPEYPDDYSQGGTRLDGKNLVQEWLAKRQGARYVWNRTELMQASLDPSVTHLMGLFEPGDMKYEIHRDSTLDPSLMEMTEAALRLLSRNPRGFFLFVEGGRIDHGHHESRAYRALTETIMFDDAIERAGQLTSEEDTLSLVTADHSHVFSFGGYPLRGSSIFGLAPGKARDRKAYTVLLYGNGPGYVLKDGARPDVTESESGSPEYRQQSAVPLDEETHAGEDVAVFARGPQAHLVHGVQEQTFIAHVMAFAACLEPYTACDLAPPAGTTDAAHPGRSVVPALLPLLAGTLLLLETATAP
Chain of Trypsin (P00761 whole entry): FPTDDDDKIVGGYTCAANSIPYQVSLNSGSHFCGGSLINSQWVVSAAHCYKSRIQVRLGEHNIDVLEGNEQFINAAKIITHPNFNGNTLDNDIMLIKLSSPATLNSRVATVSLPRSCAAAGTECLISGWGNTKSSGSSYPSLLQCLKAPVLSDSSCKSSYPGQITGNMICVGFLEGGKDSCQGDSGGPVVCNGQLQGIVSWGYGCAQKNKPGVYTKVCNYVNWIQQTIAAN

## CC(C)Cn1c(S(=O)(=O)O)nc2ccccc21
[1]
  EC50: > 55.7 µM (not active)
[2]
  EC50: > 55.7 µM (not active)

## N#Cc1c(Cl)nc(Cl)c2c1CCN(Cc1ccccc1)C2
CAAX prenyl protease 2
  AC50: 22.8 µM (active)
Trypsin
  AC50: 7.02 µM (active)

## Cc1ccc(NC(=O)CN2C(=O)S/C(=C/c3ccc(-c4cccc(C(=O)O)c4)o3)C2=O)cc1
[3]
  IC50: 50 µM (inactive)

## Cc1cc(C)n(-c2nc(Nc3ccccc3C(F)(F)F)nc(-n3nc(C)cc3C)n2)n1
[4]
  AC50: 5.49 µM (active)
[5]
  EC50: 26 µM (inactive)
[6]
  CC50: 12.4 µM (active)
[7]
  EC50: 5.15 µM (active)
Streptococcus
  EC50: 8.12 µM (active)
INS1
  AC50: 4.01 µM (active)
[8]
  AC50: 5.19 µM (active)
[9]
  CC50: 3.77 µM (active)
Streptokinase A
  EC50: > 150 µM (not active)
[10]
  AC50: 58.1 µM (active)

## CCCOC(=O)CCCN1C(=O)/C(=C2\SC(=S)N(CCCC(=O)OCCC)C2=O)SC1=S
[1]
  EC50: > 55.7 µM (not active)
[2]
  EC50: > 55.7 µM (not active)

## CCOC(=O)c1ccc2c(c1)nc(COc1ccc(OC)cc1)n2CC
[11]
  IC50: > 100 µM (inactive)

## Cc1cccc(OCc2n(C)c3ccccc3[n+]2CC(=O)OC2CC(C)CCC2C(C)C)c1 (centres undefined)
[12]
  EC50: 0.565 µM (active)
[13]
  EC50: 0.736 µM (active)
[14]
  EC50: 11.2 µM (inconclusive)
[5]
  EC50: 8.85 µM (active)
[6]
  CC50: 18.8 µM (active)
[15]
  IC50: > 20 µM (inactive)
INS1
  AC50: 3.61 µM (active)
[16]
  AC50: 3.49 µM (active)
[17]
  EC50: > 60 µM (not active)

## CCCOc1ccc(C(=O)NNC(=S)NC(=O)c2cccs2)cc1
[18]
  CC50: 6.29 µM (active)
[13]
  EC50: 0.391 µM (active)
[14]
  EC50: 18.5 µM (active)
Vero [19]
  CC50: 15.6 µM (active)
[20]
  CC50: 5.22 µM (active)
cells
  IC50: 0.5 µM (active)
[21]
  EC50: 3.76 µM (active)
Vero [22]
  IC50: > 25 µM (active)
[11]
  IC50: 8.96 µM (active)

## CCN(CC)c1ccc(C(=O)CSc2nc(C)cc(C)n2)cc1
[23]
  IC50: > 100 µM (inactive)
[24]
  IC50: > 100 µM (inactive)

## O=C(O)CNc1ccccc1C(=O)O
CAAX prenyl protease 2
  AC50: 11.3 µM (active)
